Experimental data reported in patent US9796764B2, “Cyclotide genes in the fabaceae plant family” (The University of Queensland, priority 2011, dated 2017).
Where a SMILES comes first, the peptide text is derived from it.

Columns and labels:
chymotrypsin = test: Proteolysis by chymotrypsin (MS of leaf extract); format: in vitro ADME; details: native Cter M in leaf extract
Text: (§1) The reduced and alkylated peptide, m/z 3407.6 (E, G, I) underwent proteolytic cleavage by trypsin (F) and chymotrypsin (H, J). As there is only a single tryptic site, the trypsin digestion product is observed at m/z 3424.6, whereas there were three chymotryptic sites resulting in the formation of major products at m/z 1450.7, 1511.7 and 1931.8 corresponding to KNGLPTCGETCL (SEQ ID NO:129), VPDCSCSWPICM (SEQ ID NO:130) and KNGLPTCGETCLGTCY (SEQ ID NO:131) respectively.

[1] = Solubility of the synthetic peptide; format: physicochemical
Experimental: Synthesis Cter M was synthesized using solid phase peptide synthesis and folded using conditions earlier established for other cyclotides (Daly, N. L., et al., (1999) Biochemistry 38, 10606-10614) including the use of 50% isopropanol in buffer. […] The NMR spectra of the native and synthetic Cter M peptides were recorded and found to be identical. The three-dimensional structure of Cter M was calculated with 398 distance restraints and 11 angle restraints using a simulated annealing protocol in CNS.

[2] = Haemolytic activity assay; format: cell-based, human; details: washed human red blood cells; % of maximum lysis (1% Triton X-100); read-out: haemolytic dose necessary to lyse 50% of the RBCs (HD50)
Experimental: (§2) Serially diluted peptide solutions were incubated with washed human red blood cells. Following incubation, the supernatant was transferred before the UV absorbance was measured. The amount of haemolysis was calculated as the percentage of maximum lysis (1% Triton X-100 control) after adjusting for minimum lysis (PBS control). Synthetic melittin was used for comparison. The haemolytic dose necessary to lyse 50% of the RBCs (HD50) was calculated using the regression constant from the linear portion of the haemolytic titration curve (Graphpad Prism software).

human red blood cells = test: Haemolytic activity assay; format: cell-based; details: human red blood cells
Experimental: as §2

[3] = test system: Helicoverpa armigera larvae; test: Insecticidal feeding trial; format: in vivo; details: against the cotton budworm Helicoverpa armigera
Experimental: H. armigera larvae were obtained from the Queensland Department of Employment, Economic Development & Innovation. A feeding trial was conducted for 48 h with larvae maintained at 25° C. throughout the experiment. Larvae were given diets consisting of wheat germ, yeast, and soy flour.

trypsin = target: T1, trypsin (Bos taurus, UniProt P00760); test: Proteolysis by trypsin (MS of leaf extract); format: in vitro ADME; details: native Cter M in leaf extract
T1 construct: purchased Sigma T1426
T1 sequence (P00760 24-246): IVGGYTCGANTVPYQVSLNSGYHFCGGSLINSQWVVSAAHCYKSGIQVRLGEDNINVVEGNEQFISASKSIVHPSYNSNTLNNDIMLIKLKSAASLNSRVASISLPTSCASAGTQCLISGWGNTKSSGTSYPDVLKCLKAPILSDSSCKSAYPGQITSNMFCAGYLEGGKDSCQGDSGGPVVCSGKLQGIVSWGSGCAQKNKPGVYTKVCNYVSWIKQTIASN
Text: as §1

[4] = Binding to immobilized lipid vesicles (sensorgram); details: PE membranes
[5] = test system: L3-stage larvae of Haemonchus contortus; test: Larval migration (motility) assay; format: cell-based; details: against Haemonchus contortus
Experimental: The effect of kB1 and Cter M on the motility of L3-stage larvae of Haemonchus contortus was assessed using a previously described method (Colgrave, et al., 2010, Antimicrob. Agents Ch. 54:2160-2166). The larvae were incubated in PBS containing a range of peptide concentrations for 24 h in the dark in a 96-well plate format. The motility of the worms was assessed wherein sinusoidal motion was indicative of health and loss of motility or the degree of motility was indicative of poor health. Nematodes that had been incubated with cyclotides were compared to control (no-peptide) wells.

[6] = Heat denaturation, NMR spectra before and after heating; format: physicochemical; details: 95° C. for 5 minutes
Text: (B) Superposition of the 20 lowest energy structures of Cter M. Secondary structure of Cter M (C) and PA1b (E; PDB code 1P8B). The strands are shown as arrows and the helical turns as thickened ribbons. The disulfide bonds are shown in ball-and-stick format. The structure figures were generated using MOLMOL (Koradi, R., Billeter, M. & Wüthrich, K. (1996) J. Mol. Graph. 14, 29-32). Superimposition of Cter M and PA1b (D) showing cystine knot motif; disulfide bonds are indicated, and the aC are represented by spheres.
The structure of Cter M is extremely stable evidenced by its resistance to heat denaturation. […] An ensemble and ribbon representation of the three dimensional structure is shown in FIG. 14 along with a comparison with PA1b, the pea albumin whose precursor shares high sequence homology with the Cter gene.

SMILES	hydrolysis by chymotrypsin (chymotrypsin)	solubility on addition of acetonitrile ([1]; addition of acetonitrile)	solubility in water ([1]; water)	HC50 [2] [µM]	haemolytic activity (human red blood cells)	insecticidal activity [3]	hydrolysis by trypsin (trypsin)	membrane binding [4]	anthelmintic activity [5]	resistance to heat denaturation (change in NMR spectra) [6]
CC[C@H](C)[C@@H]1NC(=O)[C@@H]2CCCN2C(=O)[C@H](Cc2c[nH]c3ccccc23)NC(=O)[C@H](CO)NC(=O)[C@@H]2CSSC[C@@H]3NC(=O)[C@H]([C@@H](C)O)NC(=O)[C@H](CCC(=O)O)NC(=O)CNC(=O)[C@@H]4CSSC[C@H](NC(=O)[C@H](CC(=O)O)NC(=O)[C@@H]5CCCN5C(=O)[C@H](C(C)C)NC(=O)[C@H](Cc5ccc(O)cc5)NC(=O)[C@H](CSSC[C@H](NC1=O)C(=O)N[C@@H](CCSC)C(=O)N[C@@H](CCCCN)C(=O)N[C@@H](CC(N)=O)C(=O)NCC(=O)N[C@@H](CC(C)C)C(=O)N1CCC[C@H]1C(=O)N[C@@H]([C@@H](C)O)C(=O)N4)NC(=O)[C@H]([C@@H](C)O)NC(=O)CNC(=O)[C@H](CC(C)C)NC(=O)[C@H]([C@@H](C)O)NC3=O)C(=O)N[C@@H](CO)C(=O)N2 [Cter M] (HELM PEPTIDE1{C.G.E.T.C.T.L.G.T.C.Y.V.P.D.C.S.C.S.W.P.I.C.M.K.N.G.L.P.T}$PEPTIDE1,PEPTIDE1,1:R3-15:R3|PEPTIDE1,PEPTIDE1,5:R3-17:R3|PEPTIDE1,PEPTIDE1,10:R3-22:R3|PEPTIDE1,PEPTIDE1,1:R1-29:R2$$$V2.0)	no observed hydrolysis	greatly improved the solubility	relatively low solubility in water	> 100	mildly haemolytic	insecticidal activity	no observed hydrolysis	binds to PE membranes	anthelmintic activity	no changes were observed in the spectra
CC(C)C[C@@H]1NC(=O)CNC(=O)[C@H](CC(N)=O)NC(=O)[C@H](CCCNC(=N)N)NC(=O)[C@H]([C@@H](C)O)NC(=O)[C@@H]2CSSC[C@@H]3NC(=O)[C@H]([C@@H](C)O)NC(=O)CNC(=O)CNC(=O)[C@H](C(C)C)NC(=O)[C@@H]4CSSC[C@H](NC(=O)[C@H]([C@@H](C)O)NC(=O)[C@H](CSSC[C@H](NC(=O)[C@H](C(C)C)NC(=O)[C@@H]5CCCN5C1=O)C(=O)NCC(=O)N[C@@H](CCC(=O)O)C(=O)N[C@@H]([C@@H](C)O)C(=O)N4)NC(=O)CNC(=O)[C@@H]1CCCN1C(=O)[C@H]([C@@H](C)O)NC(=O)[C@H](CC(N)=O)NC3=O)C(=O)N[C@@H](CO)C(=O)N[C@@H](Cc1c[nH]c3ccccc13)C(=O)N1CCC[C@H]1C(=O)N[C@@H](C(C)C)C(=O)N2 [kB1, kalata B1, reference compound]	–	–	–	7.8	–	–	–	–	–	–
